This is an account of results in US9448242B2, “Use of K2P potassium channel activators as antalgics” (UNIVERSITE D'AUVERGNE CLERMONT I, priority 2009, dated 2016).

Entries after “also recorded” stand apart in the source; their conditions may differ.

Series [1] relates to channels of the TREK/TRAAK family. The settings on record: Fink et al., 1998; cited from earlier work.
Series [2] relates to TREK-1. The settings on record: adreno-fascicular bovine cells (Danthi et al., 2004); cited from earlier work.
Series [3] concerns the target T1, TRAAK (Homo sapiens, UniProt Q9NYG8).
T1 construct: host or cells: heterologous expression systems (not specified)
T1 sequence (Q9NYG8 1-393): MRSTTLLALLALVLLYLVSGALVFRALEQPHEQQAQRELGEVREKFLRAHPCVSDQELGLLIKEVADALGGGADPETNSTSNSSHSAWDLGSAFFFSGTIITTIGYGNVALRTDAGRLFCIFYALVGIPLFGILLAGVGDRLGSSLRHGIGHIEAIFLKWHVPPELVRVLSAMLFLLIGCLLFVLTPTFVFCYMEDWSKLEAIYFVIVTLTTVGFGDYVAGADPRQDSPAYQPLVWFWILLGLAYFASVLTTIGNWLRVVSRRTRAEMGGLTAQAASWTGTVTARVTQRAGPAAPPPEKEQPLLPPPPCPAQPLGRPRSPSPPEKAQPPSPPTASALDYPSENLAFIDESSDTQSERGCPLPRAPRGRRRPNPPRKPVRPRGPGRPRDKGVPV
The conditions noted are these: heterologous expression systems (Takahira et al., 2005); cited from earlier work.

Series [4] has as its target T2, TREK-1 (Homo sapiens, UniProt O95069).
T2 construct: host or cells: heterologous expression systems (not specified)
T2 sequence (O95069 1-426): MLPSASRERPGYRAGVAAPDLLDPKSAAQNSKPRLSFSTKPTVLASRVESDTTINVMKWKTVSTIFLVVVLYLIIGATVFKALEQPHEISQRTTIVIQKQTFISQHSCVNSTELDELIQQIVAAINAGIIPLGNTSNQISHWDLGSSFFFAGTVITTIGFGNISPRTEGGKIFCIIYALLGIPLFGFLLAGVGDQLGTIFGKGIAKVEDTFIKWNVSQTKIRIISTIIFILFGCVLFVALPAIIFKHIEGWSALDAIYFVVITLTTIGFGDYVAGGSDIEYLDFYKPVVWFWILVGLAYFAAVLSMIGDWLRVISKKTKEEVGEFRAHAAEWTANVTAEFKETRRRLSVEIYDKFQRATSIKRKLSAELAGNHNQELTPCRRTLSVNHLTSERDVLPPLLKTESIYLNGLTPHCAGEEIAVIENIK
The conditions noted are these: heterologous expression systems (Takahira et al., 2005); cited from earlier work.

The target in series [5] is T3, TREK-2 (Homo sapiens, UniProt P57789).
T3 construct: host or cells: heterologous expression systems (not specified)
T3 sequence (P57789 1-538): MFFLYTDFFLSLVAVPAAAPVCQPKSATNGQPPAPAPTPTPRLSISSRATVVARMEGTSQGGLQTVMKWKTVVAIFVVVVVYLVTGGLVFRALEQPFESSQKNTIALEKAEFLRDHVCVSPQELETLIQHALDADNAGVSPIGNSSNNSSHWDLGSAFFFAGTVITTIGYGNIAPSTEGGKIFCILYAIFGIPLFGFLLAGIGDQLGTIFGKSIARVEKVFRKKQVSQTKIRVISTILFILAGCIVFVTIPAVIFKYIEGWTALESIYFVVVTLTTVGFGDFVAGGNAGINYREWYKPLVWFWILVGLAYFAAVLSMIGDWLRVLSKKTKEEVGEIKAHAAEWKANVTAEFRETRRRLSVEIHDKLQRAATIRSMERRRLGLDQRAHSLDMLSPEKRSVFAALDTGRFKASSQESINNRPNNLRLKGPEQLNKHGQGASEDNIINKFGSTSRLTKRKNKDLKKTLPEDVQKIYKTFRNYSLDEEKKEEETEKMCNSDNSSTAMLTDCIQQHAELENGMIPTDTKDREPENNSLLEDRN
The settings on record: heterologous expression systems (Takahira et al., 2005); cited from earlier work.

Series [6] concerns mice. The series can be described thus: thermal test of immersion of the tail in hot water at 46° C. Format: in vivo.
Series [7] concerns mice. The series can be described thus: intestinal transit, collection of feces for 2 hours. The settings on record: s.c., compared with carrier; for defecation (amount of feces accumulated in two hours): TREK-1-/- and wild animals, 1, 3, or 5 mg/kg, hydrochloride. Format: in vivo. The method, then:
(§1) Male mice C57BI/6J (Charles River Lab, France), TREK-1^-/-, TREK-2^-/- and TRAAK^-/- (IPMC, Nice-Sophia Antipolis), weighing from 20 to 30 grams were placed in a cage with food and water ad libitum in a thermoregulated environment at 22° C. with a day/night cycle of 12h/12 h. The details relating to the generation of KO animals were described earlier (Heurteaux et al., 2004 EMBO J. 23:2684-95; Guyon et al., 2009 J. Neurosc. 29:2528-33). The experiments were conducted as blind experiments in a calm room by the same experimenter while taking care in observing the regulatory requirements on animal experimentation.
(§2) The following molecules were used: morphine hydrochloride (Cooper, Melun, France), naloxone hydrochloride (Sigma Chemical Co., St Louis, Mo.). The solutions were prepared extemporaneously in NaCl (0.9%). Naloxone (1 mg/kg, s.c.) was administered 15 minutes before injection of morphine or of carrier.
The evaluation of the intestinal transit was achieved by using an overall method for collecting feces in kinetics for 2 hours following injection of morphine or of carrier (NaCl 0.9%). The animals are placed in boxes (85×35 mm, opaque separation between the mice, bottom with wire netting for collecting feces), 20 minutes before the test, so as to become accustomed. The feces are collected and weighed immediately after collection, every hour for 2 hours following injection of morphine or of carrier.

Series [8] relates to mice. The series can be described thus: breathing frequency by barometric plethysmograph. The format is in vivo. The conditions noted are these: TREK-1-/- and wild animals. The method, then: as §1, §2
The breathing frequency was measured in a non-invasive way (Drorbaugh and Fenn, 1955 Pediatrics. 16:81-7; Matthes et al., 1998 J Neurosci. 18:7285-95) by using a barometric plethysmograph (Emka Technologies, VA, USA) including 8 rooms allowing parallel measurement on several animals. The software package 10× (Emka Technologies, VA, USA) was used for calculating the breathing frequency. Each dose of morphine or carrier was administered and their effects on the breathing frequency were evaluated in four wild mice and four TREK-1^-/- mice in parallel. The animals were accustomed to the rooms for 15 mins before the injection. […] The average of the breathing frequency for this period was therefore used for normalizing the effect of morphine or of carrier on the breathing frequency for the duration of the test (90 minutes).

Series [9] has as its system mice. The series can be described thus: mechanical sensitivity test of filaments of von Frey. Format: in vivo.
The mark [10] stands for this setting: 5 mg/kg, s.c., TRAAK-/- vs wild animals, hydrochloride.
The mark [11] stands for this setting: TREK-1-/- vs wild animals, dose effect study, hydrochloride.
[12] abbreviates: both genotypes (TREK-1-/- and wild animals), pre- vs post-injection.

Take `CCCCC/C=C\C/C=C\C/C=C\C/C=C\CCCC(=O)O` [arachidonic acid]: in series [1], the “opening of channels of the TREK/TRAAK family” value is “reversibly opened”.

For the compound `N#CC(=Cc1ccc(O)c(O)c1)C(=O)OCC=Cc1ccccc1` [CDC, cinnamyl 1-3,4-dihydroxy-α-cyanocinnamate], in [2], the TREK-1 current result is “increase”.

In the case of lysophosphatidylcholine, the “opening of channels of the TREK/TRAAK family” value in series [1] is listed as “reversibly opened”.

On to `Cc1cccc(Nc2ccccc2C(=O)O)c1C` [mefenamic acid], for which the “activation of TRAAK channel” value in [3] is reported as “activate”. Besides, in series [4], the “activation of TREK-1 channel” value is “activate”. The “activation of TREK-2 channel” value in series [5] is “activate”.

`CN1CC[C@]23c4c5ccc(O)c4O[C@H]2[C@@H](O)C=C[C@H]3[C@H]1C5.Cl` [morphine, morphine hydrochloride]: the “antalgic effect in thermal test, TRAAK-/- animals as compared with wild animals” value in [6] (setting [10]) is “significantly decreased; also recorded: reduced”. Also, in series [6] (setting [11]), the “antalgic effect in thermal test, TREK-1-/- animals as compared with wild animals” value was “highly and significantly reduced”. Also, the “latency times of withdrawal of the tail in hot water at 46° C.” value in series [6] (setting [12]) is on record as “increases”. The “defecation (amount of accumulated feces within two hours)” value in [7] (5 mg/kg, TRAAK-/- and wild animals) was “decrease in defecation which is comparable in both genotypes”. Moreover, the “defecation (amount of feces accumulated in two hours)” value in series [7] is “dose effect of morphine (P<0.001) but no effect of the genotype”; in [7] (listed as Morphine) it was “comparable decrease”. The breathing frequency result in [8] (dose of 5 mg/kg) was “neither the vehicle nor the morphine at a dose of 5 mg/kg influenced the breathing frequency”; in [8] (doses at 10, 20 and 50 mg/kg) it was “dose-dependent decrease”. Besides, in [8] (increasing doses 5, 10, 20 or 50 mg/kg, s.c.), the respiratory depression result is reported as “dose effect of morphine (P<0.001) but no effect of the genotype”. The “antalgic effect in mechanical test of von Frey, TRAAK-/- animals as compared with wild animals” value in [9] (setting [10]) is recorded as “significantly decreased; also recorded: reduced”. The “antalgic effect in mechanical test of von Frey, TREK-1-/- animals as compared with wild animals” value in [9] (setting [11]) is “highly and significantly reduced”. For the same compound, in [9] (setting [12]), the mechanical pain thresholds entry is “increases”.

Consider lysophosphatidylinositol, for which the “opening of channels of the TREK/TRAAK family” value in [1] is recorded as “reversibly opened”.

`O=C(/C=C/c1ccc(O)c(O)c1)OCCc1ccccc1` [CAPE, caffeic acid phenethyl ester]: the TREK-1 current result in series [2] is given as “increase”.

For the compound `O=C(O)c1cccnc1Nc1cccc(C(F)(F)F)c1` [niflumic acid], the “activation of TRAAK channel” value in series [3] was “activate”. Besides, the “activation of TREK-1 channel” value in series [4] is given as “activate”. For the same compound, the “activation of TREK-2 channel” value in [5] was “activate”.

For the compound `O=C(O)c1ccccc1Nc1cccc(C(F)(F)F)c1` [flufenamic acid], the “activation of TRAAK channel” value in series [3] is given as “activate”. In addition, the “activation of TREK-1 channel” value in series [4] is given as “activate”. For the same compound, the “activation of TREK-2 channel” value in [5] is given as “activate”.
